Results as given in PubChem BioAssay AID1259407 (Chemical Carcinogenesis Research Information System (CCRIS), 2018).
Active and inactive are the calls of the source. No rule for the calls is given here.

Test system: CCRIS mutagenicity, Ames/micronucleus/aberration tests
Test: CCRIS mutagenicity studies
[1] = Test System: AMES SALMONELLA TYPHIMURIUM, Strain/Indicator: TA100, Metabolic Activation: NONE, Method: STANDARD PLATE
[2] = Test System: E. COLI, Strain/Indicator: WP2 UVRA, Metabolic Activation: HAMSTER, LIVER, S-9, AROCLOR 1254, Method: STANDARD PLATE
[3] = Test System: E. COLI, Strain/Indicator: WP2 UVRA, Metabolic Activation: HAMSTER, LIVER, S-9, Method: STANDARD PLATE
[4] = Test System: E. COLI, Strain/Indicator: WP2 UVRA, Metabolic Activation: MOUSE, LIVER, S-9, AROCLOR 1254, Method: STANDARD PLATE
[5] = Test System: E. COLI, Strain/Indicator: WP2 UVRA, Metabolic Activation: MOUSE, LIVER, S-9, Method: STANDARD PLATE
[6] = Test System: E. COLI, Strain/Indicator: WP2 UVRA, Metabolic Activation: NONE, Method: STANDARD PLATE
[7] = Test System: E. COLI, Strain/Indicator: WP2 UVRA, Metabolic Activation: RAT, LIVER, S-9, AROCLOR 1254, Method: STANDARD PLATE
[8] = Test System: E. COLI, Strain/Indicator: WP2 UVRA, Metabolic Activation: RAT, LIVER, S-9, Method: STANDARD PLATE
[9] = Test System: AMES SALMONELLA TYPHIMURIUM, Strain/Indicator: TA98, Metabolic Activation: NONE, Method: PREINCUBATION
[10] = Test System: AMES SALMONELLA TYPHIMURIUM, Strain/Indicator: TA100, Metabolic Activation: NONE, Method: PREINCUBATION

Measured: mutagenic call

O=CNc1nc(-c2ccc([N+](=O)[O-])o2)cs1
active: [1] active; positive | Test System: AMES SALMONELLA TYPHIMURIUM, Strain/Indicator: TA100, Metabolic Activation: RAT, LIVER, S-9, KC500 OR PHENOBARBITAL, Method: LIQUID SUSPENSION active; positive | Test System: E. COLI, Strain/Indicator: WP2, Metabolic Activation: NONE, Method: SPOT active; positive | Test System: E. COLI, Strain/Indicator: WP2, Metabolic Activation: NONE, Method: STANDARD PLATE active; positive | [2] active; positive | [3] active; positive | [4] active; positive | [5] active; positive | Test System: E. COLI, Strain/Indicator: WP2 UVRA, Metabolic Activation: NONE, Method: SPOT active; positive | [6] active; positive | [7] active; positive | [8] active; positive

CC(=O)Oc1ccc(CO)cc1
inactive: [1] inactive; negative

c1ccc2cnccc2c1
inactive: [9] inactive; negative | Test System: AMES SALMONELLA TYPHIMURIUM, Strain/Indicator: TA98, Metabolic Activation: RAT, LIVER, S-9, Method: PREINCUBATION inactive; negative | [10] inactive; negative | Test System: AMES SALMONELLA TYPHIMURIUM, Strain/Indicator: TA100, Metabolic Activation: RAT, LIVER, S-9, Method: PREINCUBATION inactive; negative

Oc1cc2cc3c(ccc4ccccc43)cc2c2ccccc12
active: Test System: CHINESE HAMSTER V-79, Strain/Indicator: V-79/8-AZAGUANINE, Metabolic Activation: NONE, Method: STANDARD PLATE active; positive

CC(C)(CO)[C@@H](O)C(=O)NCCC(=O)O
inactive: Test System: AMES SALMONELLA TYPHIMURIUM, Strain/Indicator: TA97, Metabolic Activation: NONE, Method: PREINCUBATION inactive; negative | Test System: AMES SALMONELLA TYPHIMURIUM, Strain/Indicator: TA97, Metabolic Activation: RAT, LIVER, S-9, AROCLOR 1254, Method: PREINCUBATION inactive; negative | Test System: AMES SALMONELLA TYPHIMURIUM, Strain/Indicator: TA97A, Metabolic Activation: NONE, Method: PREINCUBATION inactive; negative | Test System: AMES SALMONELLA TYPHIMURIUM, Strain/Indicator: TA97A, Metabolic Activation: RAT, LIVER, S-9, AROCLOR 1254, Method: PREINCUBATION inactive; negative | Test System: AMES SALMONELLA TYPHIMURIUM, Strain/Indicator: TA102, Metabolic Activation: NONE, Method: PREINCUBATION inactive; negative | Test System: AMES SALMONELLA TYPHIMURIUM, Strain/Indicator: TA102, Metabolic Activation: RAT, LIVER, S-9, AROCLOR 1254, Method: PREINCUBATION inactive; negative

Nc1ccc(S(=O)(=O)c2ccc(N)cc2)cc1
inactive: [9] inactive; negative | Test System: AMES SALMONELLA TYPHIMURIUM, Strain/Indicator: TA98, Metabolic Activation: NONE, Method: STANDARD PLATE inactive; negative | Test System: AMES SALMONELLA TYPHIMURIUM, Strain/Indicator: TA98, Metabolic Activation: RAT, LIVER, S-9, PCB, Method: STANDARD PLATE inactive; negative | [10] inactive; negative | [1] inactive; negative | Test System: AMES SALMONELLA TYPHIMURIUM, Strain/Indicator: TA100, Metabolic Activation: RAT, LIVER, S-9, PCB, Method: STANDARD PLATE inactive; negative | [2] inactive; negative | [3] inactive; negative | [4] inactive; negative | [5] inactive; negative | [6] inactive; negative | [7] inactive; negative | [8] inactive; negative

CC(=O)Nc1cc2c(cc1OC(=O)c1ccccc1)-c1ccccc1C2
inactive: Test System: AMES SALMONELLA TYPHIMURIUM, Strain/Indicator: TA98, Metabolic Activation: RAT, LIVER, S-9, AROCLOR 1254, Method: STANDARD PLATE inactive; negative
